In EPA's ToxValDB 9.5 (doi:10.2903/j.efsa.2014.3764):

How the values were obtained:
Aphidius rhopalosiphi = assay: LR50; higher = less toxic; settings: acute; duration: 48 hours; mortality
Colinus virginianus = settings: acute; oral; mortality
Canidae = settings: oral, Dog Other, clinical chemistry
Daphnia magna = settings: chronic/long-term; duration: 21 days; mortality
Oncorhynchus mykiss = settings: chronic/long-term; duration: 87 days; mortality
Apis mellifera = settings: acute, duration: 48 hours, mortality
Tagia sp. = settings: acute; duration: 14 days; mortality
Cyprinus carpio = settings: acute; duration: 96 hours; mortality
Anas platyrhynchos = settings: oral, feed

Compound: CCS(=O)(=O)c1nc2ccccn2c1S(=O)(=O)NC(=O)Nc1nc(OC)cc(OC)n1 [Sulfosulfuron]
- LR50 (Aphidius rhopalosiphi): > 29.7 g/ha
- LD50 (Colinus virginianus): > 2250 mg/kg-day
- NOAEL (Canidae; chronic, duration: 1 years): 100 mg/kg-day
- NOAEL (Canidae; subchronic, duration: 90 days): 100 mg/kg-day
- NOEC (Daphnia magna): 102 mg/L
- NOEC (Oncorhynchus mykiss): 100 mg/L
- LD50 (Apis mellifera; dermal): > 25 µg/piece
- LD50 (Apis mellifera; oral, unspecified): > 30 µg/piece
- LC50 (Tagia sp.): > 848 mg/kg
- LD50 (Rattus norvegicus; acute, oral, mortality): > 5000 mg/kg-day
- NOAEL (Rattus norvegicus; chronic, duration: 2 years, histopathology: nonneoplastic): 24.4 mg/kg-day
- NOAEL (Rattus norvegicus; reproduction developmental, duration: 22 months, oral, diet, body weight): 312 mg/kg-day
- LC50 (Cyprinus carpio): > 91 µg/mL
- NOEL (Anas platyrhynchos; reproductive): 33.7 mg/kg-day
- LD50 (Anas platyrhynchos; short-term, mortality): > 1350 mg/kg-day
